Measurements as given in patent US10548313B2, “Acetyl-CoA carboxylase modulators” (Monsanto Technology LLC, priority 2013, dated 2020).
pIC50: −log10 of the molar value. “And” between values parts separate entries of the source, which are not always exact repeats. Equal entries are not always repeated.

system: Diplodia maydis; test: Fungal growth inhibition assay, Diplodia maydis; format: cell-based; conditions: 2 ppm, 48 hours; read-out: D. maydis % growth inhibition at 48 hours
Description: Spores were isolated from previously sub-cultured plates of Botrytis cinerea, Phytophthora capsici, Fusarium moniliforme, Fusarium viguliforme, Collectotrichum graminicola, and Diplodia maydis. All spores were filtered and collected in a sterile glass bowl to isolate the spores from the mycelia. The isolation and sub-culture plate condition for each pathogen is described below.
Spore isolation for D. maydis: A 3-4 week old PDA (pre-mix) plate was removed from 26° C. incubator with a light/dark 12 hour cycle and the mycelia were treated with 6-7 ml of sterile distilled water, scraped into a sterile petri dish, and smashed to open the pycnidia. The spores were then collected in a sterile filter bowl containing a fluted piece of filter paper and poured into a conical tube.
After spore isolation, pathogen spores were counted on a hemocytometer to calculate the spores/ml. In 17% V8 liquid media containing 3 g/L CaCO3, isolated spores were diluted to individual concentrations based on the growth curves at 48 hours of each pathogen. The spore concentrations for each pathogen were as follows: B. cinerea—10,000 sp/ml; P. capsici—300 sp/ml; F. monliforme—500 sp/ml; F. virguliforme—500 sp/ml; C. graminicola—3,000 sp/ml; and D. maydis—3,000 sp/ml.
Chemistry stocks were dissolved in DMSO at 2.5 mg/ml. Chemistry was diluted in a 96-well stock plate in five-fold dilutions to obtain a final concentration of 50, 10, and 2 ppm in vitro. The final concentration of the positive control after the five-fold dilutions was as follows: soraphen—0.5, 0.1, and 0.02 ppm. Negative controls on each plate included 2% DMSO, water containing spores and media, and a blank for background subtraction.
In a 96-well plate the spore solution, chemistries, and controls were combined to make the final solution concentrations mentioned above. Upon addition of the chemistry, an OD600 reading was done to assess chemical precipitation. The 96-well plates were incubated in plastic tubs containing wet paper towels under the following conditions, 25° C. in the dark for P. capsici and B. cinerea or 26° C. with light/dark cycle for C. graminicola, D. maydis, F. virguliforme, F. monliforme. Plate readings were repeated at 24 and 48 hrs. Visual ratings were performed at 24 and 48 hrs to check for precipitation and confirm efficacy. Visual and OD600 ratings of the chemistry at 48 hours were compared to the 2% DMSO control to determine the percent of pathogen growth inhibition.

| Compound | inhibition at 2 ppm [%] |
| --- | --- |
| N#Cc1c(C(F)(F)F)cc(-c2ccco2)nc1SC(C(=O)O)c1ccccc1 (centres unmarked) [Formula Ia-xi, 2-((3-cyano-6-(furan-2-yl)-4-(trifluoromethyl)pyridin-2-yl)thio)-2-phenylacetic acid] | 38 |

same assay, conditions: 10 ppm, 48 hours; read-out: D. maydis % growth inhibition at 48 hours

| Compound | inhibition at 10 ppm [%] |
| --- | --- |
| N#Cc1c(C(F)(F)F)cc(-c2ccco2)nc1SC(C(=O)O)c1ccccc1 (centres unmarked) [Formula Ia-xi, 2-((3-cyano-6-(furan-2-yl)-4-(trifluoromethyl)pyridin-2-yl)thio)-2-phenylacetic acid] | 54 |

same assay, conditions: 50 ppm, 48 hours; read-out: D. maydis % growth inhibition at 48 hours

| Compound | inhibition at 50 ppm [%] |
| --- | --- |
| N#Cc1c(C(F)(F)F)cc(-c2ccco2)nc1SC(C(=O)O)c1ccccc1 (centres unmarked) [Formula Ia-xi, 2-((3-cyano-6-(furan-2-yl)-4-(trifluoromethyl)pyridin-2-yl)thio)-2-phenylacetic acid] | 82 |

target: Ustilago maydis acetyl CoA carboxylase (ACCase) (Mycosarcoma maydis (Ustilago maydis), UniProt A0A0D1DYD5); test: ACCase enzymatic assay (coupled PK/LDH, NADH OD340); format: biochemical; conditions: Table 1A; values marked a are a result of two or more experiments; read-out: ACCase Inhibitory Activity IC50
Description: Ustilago maydis acetyl CoA carboxylase (ACCase) was cloned, expressed, and purified as described (Weatherly et al, Biochem. J., 2004) and the test compounds were tested in a 96-well plate format. Primary in vitro screening consisted of obtaining dose response data at 100, 33, 10, and 1 μM inhibitor. Actives in the primary screen were re-tested to establish IC50 values.
Direct detection of the conversion of acetyl CoA to malonyl CoA by ACCase was not feasible, but during this process ATP is converted to ADP which allowed for detection through a standard reaction coupling with ADP recycling to the oxidation of NADH. Thus, ACCase activity was measured via kinetic OD340 measurements of the conversion of NADH to NAD in a coupled reaction involving the conversion of phosphoenolpyruvate (PEP) to lactate.
The complete 200 ul reaction mixture contained 52.5 mM HEPES (pH8), 2.625 mM MgCl2, 1 mM ATP, 0.525 mM DTT, 11 mM NaHCO3, 1% DMSO with or without inhibitor, 1× pyruvate kinase/lactate dehydrogenase (PK/LDH), 0.3 mM NADH, 0.5 mM PEP, and 5 μg ACCase. The reactions were incubated at 30° C. for 10 minutes and then initiated by the addition of 0.33 mM acetyl CoA. The initiated reactions were read immediately via plate reader at OD340 and kinetic readings were acquired every 20 s for 15 minutes while keeping the temperature at 30° C.
A slope of the kinetic curve was determined by using the 2 to 7 minute data which was then calculated as percent inhibition relative to the no inhibitor control.
The primary screens were conducted in duplicate and the IC50's conducted in triplicate. Averages were reported along with standard deviation calculation to generate error bars.
Each plate contained its own controls and consisted of a DMSO only control, 5-fold titration series of soraphen from 2 μM to 3.2 nM, and an ADP coupled reaction control.

Ustilago maydis acetyl CoA carboxylase (ACCase), sequence (A0A0D1DYD5 1-2185): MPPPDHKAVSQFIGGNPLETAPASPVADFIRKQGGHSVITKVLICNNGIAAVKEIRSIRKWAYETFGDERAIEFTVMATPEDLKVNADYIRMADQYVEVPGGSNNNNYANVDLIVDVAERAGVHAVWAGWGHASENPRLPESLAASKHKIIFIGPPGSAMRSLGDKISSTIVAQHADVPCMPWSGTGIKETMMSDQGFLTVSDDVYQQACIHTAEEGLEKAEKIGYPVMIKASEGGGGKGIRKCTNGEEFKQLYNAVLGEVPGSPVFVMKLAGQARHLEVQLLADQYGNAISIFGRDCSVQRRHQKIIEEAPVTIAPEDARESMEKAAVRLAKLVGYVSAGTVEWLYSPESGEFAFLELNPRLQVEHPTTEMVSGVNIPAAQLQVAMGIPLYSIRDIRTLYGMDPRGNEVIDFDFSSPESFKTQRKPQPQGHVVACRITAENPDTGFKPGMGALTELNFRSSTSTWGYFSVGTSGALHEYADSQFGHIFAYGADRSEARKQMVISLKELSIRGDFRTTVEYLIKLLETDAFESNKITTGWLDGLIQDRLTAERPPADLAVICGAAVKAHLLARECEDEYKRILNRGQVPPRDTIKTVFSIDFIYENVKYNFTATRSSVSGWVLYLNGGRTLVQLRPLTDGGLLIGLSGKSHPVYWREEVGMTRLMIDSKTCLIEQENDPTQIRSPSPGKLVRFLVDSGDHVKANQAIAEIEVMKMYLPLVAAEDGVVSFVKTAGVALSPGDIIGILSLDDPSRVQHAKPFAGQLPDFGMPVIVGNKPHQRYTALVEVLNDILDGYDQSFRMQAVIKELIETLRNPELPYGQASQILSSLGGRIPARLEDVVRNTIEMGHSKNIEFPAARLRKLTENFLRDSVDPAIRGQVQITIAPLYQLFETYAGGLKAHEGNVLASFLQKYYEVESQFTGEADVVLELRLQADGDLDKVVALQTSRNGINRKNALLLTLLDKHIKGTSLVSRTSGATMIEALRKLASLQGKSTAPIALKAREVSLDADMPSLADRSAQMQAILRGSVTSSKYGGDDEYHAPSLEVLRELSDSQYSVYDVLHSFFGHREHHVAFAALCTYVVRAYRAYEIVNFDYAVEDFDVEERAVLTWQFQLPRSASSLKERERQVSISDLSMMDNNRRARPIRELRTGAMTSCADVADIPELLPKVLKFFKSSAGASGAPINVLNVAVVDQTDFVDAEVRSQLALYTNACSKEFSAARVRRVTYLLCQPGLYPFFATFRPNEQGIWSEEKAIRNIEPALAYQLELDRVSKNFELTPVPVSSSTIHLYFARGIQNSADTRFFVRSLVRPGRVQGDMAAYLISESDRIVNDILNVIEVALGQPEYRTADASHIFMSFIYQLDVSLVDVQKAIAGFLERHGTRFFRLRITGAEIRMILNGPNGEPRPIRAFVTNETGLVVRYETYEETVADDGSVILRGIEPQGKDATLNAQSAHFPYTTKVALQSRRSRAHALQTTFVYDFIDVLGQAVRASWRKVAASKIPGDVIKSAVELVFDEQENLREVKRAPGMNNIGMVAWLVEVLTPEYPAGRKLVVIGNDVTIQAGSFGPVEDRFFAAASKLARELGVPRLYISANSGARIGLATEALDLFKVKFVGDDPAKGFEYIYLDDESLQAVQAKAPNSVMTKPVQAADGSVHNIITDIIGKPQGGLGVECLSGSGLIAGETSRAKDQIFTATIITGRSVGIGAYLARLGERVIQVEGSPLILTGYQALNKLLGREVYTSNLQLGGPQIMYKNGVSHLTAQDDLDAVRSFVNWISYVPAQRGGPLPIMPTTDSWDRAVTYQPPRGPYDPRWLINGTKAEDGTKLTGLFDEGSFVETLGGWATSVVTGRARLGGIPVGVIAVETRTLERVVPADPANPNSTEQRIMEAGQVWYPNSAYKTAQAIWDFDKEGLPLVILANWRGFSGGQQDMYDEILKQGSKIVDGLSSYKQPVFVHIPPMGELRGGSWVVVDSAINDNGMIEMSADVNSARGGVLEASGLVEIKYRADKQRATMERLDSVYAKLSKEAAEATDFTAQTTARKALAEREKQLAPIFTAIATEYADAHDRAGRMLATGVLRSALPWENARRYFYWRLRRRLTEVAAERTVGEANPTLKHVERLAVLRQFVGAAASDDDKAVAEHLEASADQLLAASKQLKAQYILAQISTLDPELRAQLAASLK

| Compound | pIC50 |
| --- | --- |
| 2-((3-cyano-4-(thiophen-2-yl)-5,6,7,8-tetrahydroquinolin-2-yl)oxy)-2-phenylacetic acid [Formula Ia-xxvii] | 6.60 |
| COc1ccc(-c2cc(-c3cccs3)nc(SC(CO)c3ccccc3)c2C#N)cc1 (centres unmarked) [Formula IIb-i, 2-((2-hydroxy-1-phenylethyl)thio)-4-(4-methoxyphenyl)-6-(thiophen-2-yl)nicotinonitrile] | 6.20 |
| N#Cc1c(SC(CO)c2ccccc2)nc2c(c1-c1cccs1)CCCC2 (centres unmarked) [Formula IIb-ii, 2-((2-hydroxy-1-phenylethyl)thio)-4-(thiophen-2-yl)-5,6,7,8-tetrahydroquinoline-3-carbonitrile] | 5.39 |
| N#Cc1c(-c2ccco2)cc(-c2cccs2)nc1SC(CO)c1ccccc1 (centres unmarked) [Formula IIb-iv, 4-(furan-2-yl)-2-((2-hydroxy-1-phenylethyl)thio)-6-(thiophen-2-yl)nicotinonitrile] | 5.66 |
| CN1CCCc2c1nc(SC(C(=O)O)c1ccccc1)c(C#N)c2-c1cccs1 (centres unmarked) [Formula Ia-vi, 2-((3-cyano-8-methyl-4-(thiophen-2-yl)-5,6,7,8-tetrahydro-1,8-naphthyridin-2-yl)thio)-2-phenylacetic acid] | 5.45 |
| N#Cc1c(C(F)(F)F)cc(-c2ccco2)nc1SC(C(=O)O)c1ccccc1 (centres unmarked) [Formula Ia-xi, 2-((3-cyano-6-(furan-2-yl)-4-(trifluoromethyl)pyridin-2-yl)thio)-2-phenylacetic acid] | 5.27 |
| COc1ccc(-c2cc(SC(C(=O)O)c3ccccc3)nc(-c3cccs3)c2)cc1 (centres unmarked) [Formula Ia-xix, 2-((4-(4-methoxyphenyl)-6-(thiophen-2-yl)pyridin-2-yl)thio)-2-phenylacetic acid] | 5.04 |
| Cc1cc(C(F)(F)F)c(C#N)c(SC(C(=O)O)c2ccccc2)n1 (centres unmarked) [Formula Ia-xvi, 2-((3-cyano-6-methyl-4-(trifluoromethyl)pyridin-2-yl)thio)-2-phenylacetic acid] | 5.11 |
| N#Cc1c(SC(C(=O)O)c2ccccc2)nc2c(c1-c1ccccc1)CCCC2 (centres unmarked) [Formula Ia-xvii, 2-((3-cyano-4-phenyl-5,6,7,8-tetrahydroquinolin-2-yl)thio)-2-phenylacetic acid] | 6.04 |
| COc1ccc(-c2cc(-c3ccco3)nc(SC(C(=O)O)c3ccccc3)c2C#N)cc1 (centres unmarked) [Formula Ia-xx, 2-((3-cyano-6-(furan-2-yl)-4-(4-methoxyphenyl)pyridin-2-yl)thio)-2-phenylacetic acid] | 6.46 |
| Cc1ccc(-c2cc(-c3cccs3)nc(SC(C(=O)O)c3ccccc3)c2C#N)cc1 (centres unmarked) [Formula Ia-xxi, 2-((3-cyano-6-(thiophen-2-yl)-4-(p-tolyl)pyridin-2-yl)thio)-2-phenylacetic acid] | 6.45 |
| N#Cc1c(-c2ccc(F)cc2)cc(-c2cccs2)nc1SC(C(=O)O)c1ccccc1 (centres unmarked) [Formula Ia-xxii, 2-((3-cyano-4-(4-fluorophenyl)-6-(thiophen-2-yl)pyridin-2-yl)thio)-2-phenylacetic acid] | 6.25 |
| N#Cc1c(-c2ccc(Br)cc2)cc(-c2cccs2)nc1SC(C(=O)O)c1ccccc1 (centres unmarked) [Formula Ia-xxiii, 2-((4-(4-bromophenyl)-3-cyano-6-(thiophen-2-yl)pyridin-2-yl)thio)-2-phenylacetic acid] | 6.67 |
| N#Cc1c(-c2cccs2)cc(-c2ccco2)nc1SC(C(=O)O)c1ccccc1 (centres unmarked) [Formula Ia-xxiv, 2-((3-cyano-6-(furan-2-yl)-4-(thiophen-2-yl)pyridin-2-yl)thio)-2-phenylacetic acid] | 6.02 |
| CCC(Sc1nc(-c2cccs2)cc(-c2ccc(OC)cc2)c1C#N)C(=O)O (centres unmarked) [Formula Ia-xxix, 2-((3-cyano-4-(4-methoxyphenyl)-6-(thiophen-2-yl)pyridin-2-yl)thio)butanoic acid] | 6.95 |
| N#Cc1c(-c2ccco2)cc(-c2ccco2)nc1SC(C(=O)O)c1ccccc1 (centres unmarked) [Formula Ia-xxv, 2-((3-cyano-4,6-di(furan-2-yl)pyridin-2-yl)thio)-2-phenylacetic acid] | 5.39 |
| COc1ccc(-c2c(C#N)c(SC(C(=O)O)c3ccccc3)nc3c2CCCC3)cc1 (centres unmarked) [Formula Ia-xxvi, 2-((3-cyano-4-(4-methoxyphenyl)-5,6,7,8-tetrahydroquinolin-2-yl)thio)-2-phenylacetic acid] | 6.25 |
| N#Cc1c(SC(C(N)=O)c2ccccc2)nc2c(c1-c1cccs1)CCCC2 (centres unmarked) [Formula Ib-i, 2-((3-cyano-4-(thiophen-2-yl)-5,6,7,8-tetrahydroquinolin-2-yl)thio)-2-phenylacetamide] | 6.15 |
| COc1ccc(-c2cc(-c3cccs3)nc(SC(C(N)=O)c3ccccc3)c2C#N)cc1 (centres unmarked) [Formula Ib-ii, 2-((3-cyano-4-(4-methoxyphenyl)-6-(thiophen-2-yl)pyridin-2-yl)thio)-2-phenylacetamide] | < 4.48 |
| COc1ccc(-c2cc(-c3cccs3)nc(SC(C(=O)NO)c3ccccc3)c2C#N)cc1 (centres unmarked) [Formula Ib-iii, 2-((3-cyano-4-(4-methoxyphenyl)-6-(thiophen-2-yl)pyridin-2-yl)thio)-N-hydroxy-2-phenylacetamide] | 6.05 |
| CO[C@H]1CCCC[C@@H](c2ccccc2)OC(=O)[C@@H](C)[C@@]2(O)O[C@H]([C@@H](C)[C@H](O)[C@H]2OC)[C@@H](C)/C=C/[C@H]1OC [Soraphen, reference compound] | 7.34 |

same assay, conditions: Table 1B; racemate vs single enantiomers; read-out: ACCase Inhibitory Activity of Racemic Mixtures and Single Enantiomers IC50

| Compound | pIC50 |
| --- | --- |
| N#Cc1c(C(F)(F)F)cc(-c2cccs2)nc1SC(C(=O)O)c1ccccc1 (single isomer, unassigned) [Formula Ia-ii-e1, 2-((3-cyano-6-(thiophen-2-yl)-4-(trifluoromethyl)-pyridin-2-yl)thio)-2-phenylacetic acid] | 4.89 |
| N#Cc1c(-c2cccs2)cc(-c2cccs2)nc1SC(C(=O)O)c1ccccc1 (single isomer, unassigned) [Formula Ia-iii-e1, 2-((3-cyano-4,6-di(thiophen-2-yl)pyridin-2-yl)thio)-2-phenylacetic acid] | 6.26 |
| N#Cc1c(-c2cccs2)cc(-c2cccs2)nc1SC(C(=O)O)c1ccccc1 (single isomer, unassigned) [Formula Ia-iii-e2, 2-((3-cyano-4,6-di(thiophen-2-yl)pyridin-2-yl)thio)-2-phenylacetic acid] | 5.62 |
| COc1ccc(-c2cc(-c3cccs3)nc(SC(C(=O)O)c3ccccc3)c2C#N)cc1 (single isomer, unassigned) [Formula Ia-xiv-e1, 2-((3-cyano-4-(4-methoxyphenyl)-6-(thiophen-2-yl)pyridin-2-yl)thio)-2-phenylacetic acid] | 6.94 and 6.89 |
| COc1ccc(-c2cc(-c3cccs3)nc(SC(C(=O)O)c3ccccc3)c2C#N)cc1 (single isomer, unassigned) [Formula Ia-xiv-e2, 2-((3-cyano-4-(4-methoxyphenyl)-6-(thiophen-2-yl)pyridin-2-yl)thio)-2-phenylacetic acid] | 6.36 and 6.28 |
